Among the data in BindingDB's records for PubMed 8093723 (Dainippon Pharmaceutical, 1993) are Ki values, retold here.

One may read the Ki as a dissociation constant, usually derived from enzyme kinetics or from competition with a known ligand. A high value points to weaker binding.

Some targets named below: D(1A) dopamine receptor (Rattus norvegicus, UniProt P18901); Histamine H1 receptor (Rattus norvegicus, UniProt P31390); D(2) dopamine receptor (Rattus norvegicus, UniProt P61169).
The target in test [1] is Sigma non-opioid intracellular receptor 1 (Cavia porcellus, UniProt Q60492).
For test [2], the target named is Beta-2 adrenergic receptor (Rattus norvegicus, UniProt P10608).
Test [3] concerns the target T1, Muscarinic acetylcholine receptor M2 (Rattus norvegicus, UniProt P10980).
T1 sequence (P10980 whole entry): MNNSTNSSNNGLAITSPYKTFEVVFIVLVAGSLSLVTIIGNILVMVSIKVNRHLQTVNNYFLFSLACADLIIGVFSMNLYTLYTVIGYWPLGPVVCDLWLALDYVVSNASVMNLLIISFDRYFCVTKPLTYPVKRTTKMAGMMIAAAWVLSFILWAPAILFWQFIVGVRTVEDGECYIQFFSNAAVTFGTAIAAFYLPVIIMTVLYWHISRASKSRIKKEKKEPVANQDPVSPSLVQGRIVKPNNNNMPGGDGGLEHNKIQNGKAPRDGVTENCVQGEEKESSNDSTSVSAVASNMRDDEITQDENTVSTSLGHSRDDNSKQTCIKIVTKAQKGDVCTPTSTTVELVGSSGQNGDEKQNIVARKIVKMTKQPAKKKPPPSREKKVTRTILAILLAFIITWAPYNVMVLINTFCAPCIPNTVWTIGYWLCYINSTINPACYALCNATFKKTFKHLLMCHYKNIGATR

For test [4], the target named is Gamma-aminobutyric acid (GABA) B receptor 1 (Rattus norvegicus, UniProt Q6MFX8).
Test [5] addresses Gamma-aminobutyric acid receptor subunit alpha-1 (Rattus norvegicus, UniProt P62813).

Chain of Beta-2 adrenergic receptor (P10608 whole entry): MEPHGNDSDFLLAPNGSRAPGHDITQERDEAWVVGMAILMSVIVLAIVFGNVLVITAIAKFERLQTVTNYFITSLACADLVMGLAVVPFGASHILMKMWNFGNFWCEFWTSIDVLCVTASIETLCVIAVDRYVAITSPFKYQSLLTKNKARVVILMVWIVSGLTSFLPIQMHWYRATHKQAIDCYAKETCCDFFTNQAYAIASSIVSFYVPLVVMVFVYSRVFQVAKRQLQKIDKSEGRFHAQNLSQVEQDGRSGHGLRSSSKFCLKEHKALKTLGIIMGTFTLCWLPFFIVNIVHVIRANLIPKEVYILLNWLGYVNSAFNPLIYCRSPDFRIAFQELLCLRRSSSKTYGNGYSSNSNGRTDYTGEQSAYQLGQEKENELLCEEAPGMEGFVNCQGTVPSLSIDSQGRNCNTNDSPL
Chain of D(2) dopamine receptor (P61169 whole entry): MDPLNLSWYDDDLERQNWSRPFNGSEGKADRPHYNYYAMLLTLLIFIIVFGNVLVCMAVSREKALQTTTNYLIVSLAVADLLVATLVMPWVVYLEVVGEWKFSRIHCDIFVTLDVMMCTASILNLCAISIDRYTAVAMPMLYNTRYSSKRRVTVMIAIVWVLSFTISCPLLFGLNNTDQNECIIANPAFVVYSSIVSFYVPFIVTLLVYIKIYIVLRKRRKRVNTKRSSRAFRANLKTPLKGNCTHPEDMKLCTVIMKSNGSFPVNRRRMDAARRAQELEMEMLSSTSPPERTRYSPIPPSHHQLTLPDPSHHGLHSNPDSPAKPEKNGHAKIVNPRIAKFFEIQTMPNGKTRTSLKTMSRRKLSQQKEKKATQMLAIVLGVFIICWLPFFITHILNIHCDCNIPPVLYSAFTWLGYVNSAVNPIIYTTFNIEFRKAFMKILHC
Chain of Histamine H1 receptor (P31390 whole entry): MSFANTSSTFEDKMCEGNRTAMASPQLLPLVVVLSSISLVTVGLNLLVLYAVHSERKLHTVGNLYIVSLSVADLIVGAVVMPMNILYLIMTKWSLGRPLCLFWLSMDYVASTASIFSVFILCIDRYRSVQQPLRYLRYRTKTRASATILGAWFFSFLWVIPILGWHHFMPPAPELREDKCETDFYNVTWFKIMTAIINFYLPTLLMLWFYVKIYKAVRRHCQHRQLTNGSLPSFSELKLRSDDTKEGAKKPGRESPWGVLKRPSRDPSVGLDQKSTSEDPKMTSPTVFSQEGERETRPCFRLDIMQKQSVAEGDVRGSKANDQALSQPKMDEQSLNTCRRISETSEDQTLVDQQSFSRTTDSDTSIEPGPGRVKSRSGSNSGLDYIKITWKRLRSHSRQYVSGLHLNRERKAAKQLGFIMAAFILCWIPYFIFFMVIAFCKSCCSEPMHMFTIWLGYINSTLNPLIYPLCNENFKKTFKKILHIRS
Chain of Gamma-aminobutyric acid (GABA) B receptor 1 (Q6MFX8 whole entry): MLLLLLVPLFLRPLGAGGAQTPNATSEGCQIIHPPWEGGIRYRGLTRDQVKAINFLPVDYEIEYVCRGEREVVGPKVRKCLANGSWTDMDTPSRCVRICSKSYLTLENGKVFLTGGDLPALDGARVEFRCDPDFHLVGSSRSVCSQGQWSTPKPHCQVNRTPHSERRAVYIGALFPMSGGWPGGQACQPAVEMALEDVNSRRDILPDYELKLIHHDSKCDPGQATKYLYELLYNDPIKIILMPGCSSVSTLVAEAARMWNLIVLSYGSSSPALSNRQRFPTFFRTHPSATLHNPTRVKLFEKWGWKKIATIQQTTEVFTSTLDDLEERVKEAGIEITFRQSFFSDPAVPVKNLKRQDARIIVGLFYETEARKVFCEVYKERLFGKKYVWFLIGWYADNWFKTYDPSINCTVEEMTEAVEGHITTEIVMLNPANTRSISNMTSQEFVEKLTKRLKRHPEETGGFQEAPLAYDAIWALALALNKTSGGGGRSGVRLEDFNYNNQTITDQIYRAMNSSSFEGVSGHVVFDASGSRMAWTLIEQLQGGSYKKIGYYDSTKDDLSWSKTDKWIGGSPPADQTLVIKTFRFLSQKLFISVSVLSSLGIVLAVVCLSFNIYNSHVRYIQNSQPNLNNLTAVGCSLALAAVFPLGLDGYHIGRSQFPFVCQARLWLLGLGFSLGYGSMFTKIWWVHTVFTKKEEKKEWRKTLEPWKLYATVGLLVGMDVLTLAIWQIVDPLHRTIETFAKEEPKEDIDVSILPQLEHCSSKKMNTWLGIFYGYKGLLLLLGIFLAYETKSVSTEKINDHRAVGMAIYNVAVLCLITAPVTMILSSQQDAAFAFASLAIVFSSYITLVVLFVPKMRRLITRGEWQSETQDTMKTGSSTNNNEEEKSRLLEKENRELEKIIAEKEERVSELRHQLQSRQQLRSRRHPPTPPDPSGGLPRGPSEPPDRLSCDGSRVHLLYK
Chain of D(1A) dopamine receptor (P18901 whole entry): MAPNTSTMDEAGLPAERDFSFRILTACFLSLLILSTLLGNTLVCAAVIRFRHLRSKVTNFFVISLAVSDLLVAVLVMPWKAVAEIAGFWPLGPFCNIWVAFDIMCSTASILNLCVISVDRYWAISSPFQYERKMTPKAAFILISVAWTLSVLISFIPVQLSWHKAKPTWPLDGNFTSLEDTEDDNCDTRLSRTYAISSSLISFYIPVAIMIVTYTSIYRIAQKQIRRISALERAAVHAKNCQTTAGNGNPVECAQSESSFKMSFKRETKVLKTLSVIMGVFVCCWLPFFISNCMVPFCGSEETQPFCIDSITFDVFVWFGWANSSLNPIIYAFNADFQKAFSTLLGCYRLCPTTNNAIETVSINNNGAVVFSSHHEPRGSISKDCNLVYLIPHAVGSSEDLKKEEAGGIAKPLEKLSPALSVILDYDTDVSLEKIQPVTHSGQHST
Chain of Gamma-aminobutyric acid receptor subunit alpha-1 (P62813 whole entry): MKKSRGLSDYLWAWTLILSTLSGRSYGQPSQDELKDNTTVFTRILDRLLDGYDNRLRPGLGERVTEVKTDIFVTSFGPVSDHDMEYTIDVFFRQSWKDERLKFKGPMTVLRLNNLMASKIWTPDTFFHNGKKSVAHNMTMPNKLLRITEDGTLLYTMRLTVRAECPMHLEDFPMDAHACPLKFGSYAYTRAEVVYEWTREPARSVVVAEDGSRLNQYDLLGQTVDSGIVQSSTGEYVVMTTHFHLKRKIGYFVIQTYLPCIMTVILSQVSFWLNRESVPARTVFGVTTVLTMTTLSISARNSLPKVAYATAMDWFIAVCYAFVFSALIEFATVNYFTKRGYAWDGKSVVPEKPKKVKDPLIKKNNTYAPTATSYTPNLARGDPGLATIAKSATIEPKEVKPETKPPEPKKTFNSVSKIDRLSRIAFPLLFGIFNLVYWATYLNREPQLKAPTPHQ
Chain of Sigma non-opioid intracellular receptor 1 (Q60492 whole entry): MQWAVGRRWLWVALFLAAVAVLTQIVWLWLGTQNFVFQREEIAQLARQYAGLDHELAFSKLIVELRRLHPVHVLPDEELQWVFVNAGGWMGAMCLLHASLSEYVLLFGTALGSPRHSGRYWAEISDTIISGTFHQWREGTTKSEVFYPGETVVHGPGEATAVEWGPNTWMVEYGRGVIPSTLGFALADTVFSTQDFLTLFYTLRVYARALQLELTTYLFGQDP

`CCN1CCN(c2cc(-c3ccc(F)cc3)c3c(n2)CCCCCC3)CC1` [AD-5423]: the Ki in test [1] was 286 nM; in test [2], greater than 10 µM; in test [3], 2300 nM; on D(1A) dopamine receptor, 2870 nM; on Histamine H1 receptor it was 3.01 µM; at D(2) dopamine receptor it was 14.8 nM. Also, the Ki in test [4] and in test [5] was greater than 10 µM each time.
